Each structure is given as a SMILES string.

One may read the melting point as the temperature, or range, at which the solid turns liquid. In turn, `COc1cc(C(=O)N(C(C)C)C2CCCCC2)ccc1Cn1cnc2ncccc21` yielded a melting point of 189 to 191 °C. The result for `O=CC(=Cc1ccc(OC(=O)c2ccccc2F)cc1)C(C=O)=Cc1ccc(OC(=O)c2ccccc2F)cc1` reads 197 to 199 °C; that for `O=C(CC1=C(n2nc(-c3c(-c4ccccc4)nn4ccccc34)ccc2=O)CCCC1)N1CCN(C(c2ccccc2)(c2ccccc2)c2ccccc2)CC1`, 250 °C. Next, `CCN1CCC[C@H]1C(N)=O`: 107 to 108 °C. For `c1ccc(C2(c3ccccc3)CCSCC2)cc1`, the melting point came out at 134 °C. `CCOC(=O)[C@@H]1[C@H](C)OC(=O)[C@@H]1NC(C)=O` gave a melting point of 165 to 167 °C. Next, `OC(c1ccccc1Cl)C(c1ccccc1Cl)n1ccnc1` (centres undefined): 62 to 68 °C; `O=C(O)C=Cc1ccc(Cn2ccnc2)c(Cl)c1`: 227 to 229 °C.

Take `Cc1ccc(OCc2ccccc2)c2cnn(Cc3ccccc3)c12`: the melting point fell in the range of 92 to 93 °C.

`CC1CCN(c2ncc(Br)cc2C=O)C1` (centres undefined): the melting point fell in the range of 72 to 73 °C. As for `COC(=O)COc1ccc(C(=O)CNC=O)cc1`, the melting point turned out to be 116 °C. The result for `O=C(NCCN1CCOCC1)Nc1nc2ccc(OCc3c(F)cccc3Cl)cc2s1` reads 210 °C; that for `COc1cc(OC)nc(NC(=O)NS(=O)(=O)c2ccccc2S(N)(=O)=O)n1`, 192 to 193 °C; that for `CSc1ncc(CN)c(NC2CCCC2)n1`, 58 to 60 °C.

`Cn1nc2ccccc2c1C(=O)NC1CCN(CCc2ccc(F)cc2)C1` (centres undefined) came in with a melting point of 117 to 119 °C. The result for `CCN(CC)CCNC(=O)c1c(I)ccc2c(=O)c3ccccc3[nH]c12` reads 215 to 217 °C; that for `Clc1ccc2c(c1)C=C(n1ccnc1)CO2`, 118 to 120 °C.

In the case of `COC(=O)c1ccc(CBr)cc1O`, the melting point was in the range of 73 to 75 °C. The result for `CCCCCC/C=C/CCCCCCCC(=O)Nc1nc(CC(=O)O)cs1` reads 117 to 118 °C; that for `C#CCN(Cc1ccc2nc(C)[nH]c(=O)c2c1)c1ccc(C(=O)NCC(OC(C)=O)c2ccc([N+](=O)[O-])cc2)cc1` (centres undefined), 198 to 203 °C. Molecule `CS(=O)(=O)c1ccc(-n2nc(CNC(=O)NC3CCCCCC3)cc2-c2ccccc2)cc1` yielded a melting point of 104 to 110 °C. Next, `CS(=O)(=O)c1ccc(-c2cc(=O)cc(CO)o2)cc1`: 120 °C; `CON=C(C)CN1C(=O)c2ccccc2C1=O`: 114 to 131 °C. The result for `CN1C(=O)[C@H](NC(=O)CCc2ccc(Cl)cc2)N=C(c2ccccc2)c2ccccc21` reads 203 to 205 °C; that for `COc1cc(C(=O)C#CC(=O)N(C)C)cc(OC)c1OC`, 118 to 119 °C. For `O=C(O)COc1cc(Cl)ccc1C(=O)NCc1cccc(C(F)(F)F)c1`, the melting point lay in the range of 179 to 181 °C. The result for `CCOc1ccc(-c2nc(Cn3cccc3C(C)=O)cs2)cc1OCC` reads 123 to 124 °C; that for `CN(C)CCCNC(=S)Nc1ccccc1`, 112 to 114 °C. For `COc1ccc(Cl)c(Oc2cnc(-c3ncccn3)nc2C=O)c1`, the melting point is 211 °C.

As for `Cc1cc(NCc2ccc3oc(-c4ccccc4-c4nnn[nH]4)c(Br)c3c2)n2nccc2n1`, the melting point is above 250 °C.

`CSc1ccc(C(=O)C(=O)c2ccc(Cl)c(Cl)c2)cc1` registered a melting point of 249 to 251 °C. The result for `CC(C)(C)OC(=O)NCC1CN(C(c2ccccc2)c2ccccc2)C1` reads 108 to 110 °C; that for `O=C(O)c1cnn2c(C(F)(F)F)cc(-c3cccc(C(F)(F)F)c3)nc12`, 212 °C. Turning to `Cc1ccc(Oc2cccc(CC(=O)O)c2N)cc1C`, the melting point was 90 to 92 °C.

Regarding `ON=C(Nc1ccc(C(F)(F)F)cc1)C1=NN(c2ccc(Cl)cc2)C(c2ccc(F)cc2)C1` (centres undefined), the melting point was in the range of 188 to 191 °C.

Molecule `COC(=O)[C@H](Cc1c[nH]c2ccccc12)NC(=O)CCC(=O)[C@H](Cc1ccccc1)NC(=O)OC(C)(C)C` returned a melting point of 54 to 57 °C. Next, `CSc1nc2cncnc2n1Cc1ccc(F)cc1`: 167 °C. The result for `COc1ccc(-c2c(C)c3ccc(O)cc3oc2=O)c(O)c1` reads 213 to 214 °C; that for `CCOC(=O)c1c(-c2ccc(C)cc2)c2ccncc2c(=O)n1C`, 134 to 136 °C.

`O=C(Nc1ccc2ccc(-c3ccccc3Cl)nc2n1)c1ccccc1` yielded a melting point of 156 °C. Next, `COC(=O)NC(=S)Nc1ccon1`: 165 to 167 °C. Next, `CC12CC(N3CCC(O)CC3)C(O)CC1CCC1C2CCC2(C)C(O)C(N3CCC(O)CC3)CC12` (centres undefined): 248 to 250 °C; `Cc1nscc1C(=O)NC1CC1`: 106 to 108 °C. Next, `O=C(O)CCNc1ccc(-c2ccc3nnn(Cc4ccc5ncccc5c4)c3n2)cc1F`: 132 to 135 °C; `CCN(CC)C(=O)NC1CC2c3cccc4[nH]c(CCc5ccc(OC)cc5)c(c34)CC2N(C)C1` (centres undefined): 147 to 149 °C. The molecule `Cc1ccc2c(c1Cl)C(=O)N(C(C)(C(N)=O)C(C)C)C2=O` (centres undefined) yielded a melting point of 215 to 218 °C.

The molecule `CCCc1cc(Cl)c(OC(=S)N(C)C)c(C(C)=O)c1O` displayed a melting point of 114 to 116 °C. The result for `CCCc1c(C(=O)CC)c2ccc(C(N)=O)cc2n1Cc1ccccc1Cl` reads 151 to 152 °C. Next, `COc1cccc2c1CCC1C(=O)N(C(C)c3ccccc3)C(=O)C21` (centres undefined): 101 to 103 °C; `CCCN(CCC(N)=O)CCC(N)=O`: 101 to 102 °C; `Cc1ccc2nc(-c3ccc(Cl)cc3)cc(Cl)c2c1`: 136 to 138 °C. Next, `COC(=O)c1cccc(N2CC(C)=CC2=O)c1`: 87 to 89 °C; `CC(C)c1ccc(-n2c(CC(=O)O)c(C(=O)O)c3cc(Oc4ccc(Cl)c(Cl)c4)ccc32)cc1`: 174 to 180 °C; `CC(=O)C1=CCC2C3CCC4CC(O)CCC4(C)C3C(OC(=O)CCl)CC12C` (centres undefined): 160 to 162 °C. On to `FC(F)(F)c1cc(Nc2nnc(CCCc3cccnc3)c3ccccc23)ccc1Cl`, for which the melting point amounted to 142 °C. Molecule `COc1ccc(-c2cncc(OC3SCC(O)C(O)C3O)c2)cc1` (centres undefined) yielded a melting point of 216 °C. Next, `CC(C)CC1(C(CCN2C(=O)c3ccc4c(ccc5ccccc54)c3C2=O)C(=O)NO)CCN(CCc2ccccc2)C1=O` (centres undefined): 203 to 205 °C; `Cc1ccc2cccc(OCc3c(Cl)ccc(S(=O)(=O)N4CCC[C@H]4C(=O)N(C)CCNC(=O)OC(C)(C)C)c3Cl)c2n1`: 88 °C; `CN(C(=O)C(C)(C)NC(=O)OCc1ccccc1)c1ccc([N+](=O)[O-])cc1C(=O)c1ccccc1F`: 168 to 169 °C. The result for `COc1ccc2[nH]cc(CC3=CCCN(CCCC(=O)c4cccs4)C3)c2c1` reads 140 to 150 °C; that for `CS(=O)(=O)Nc1ccc(C2CCN(c3ccncc3)CC2)cc1`, 269 to 271 °C. For the molecule `O=[N+]([O-])c1c(Nc2ccon2)cnc2c1COCC2`, the melting point fell in the range of 143 to 145 °C. The result for `O=C1CCCCN1S(=O)(=O)c1ccc(N2CCCCCCC2)cc1` reads 150 to 152 °C; that for `CCNC(=O)NC(N)=O`, 158 to 160 °C; that for `Cc1oc(-c2ccccc2)nc1COc1ccc(CO)cn1`, 121 to 122 °C.

Molecule `CSc1ccc(C=CC(=O)c2ccc(O)cc2)cc1` gave a melting point of 171 °C.

`COc1cc2c(Nc3ccc(Oc4cccnc4)cc3)c(C#N)cnc2cc1N1CCC(N2CCCC2)CC1`: the melting point fell in the range of 194 to 196 °C. The result for `COc1ccc(N2CCN(C3CCN(Cc4ccccc4)CC3)C2=O)cc1` reads 144 to 147 °C; that for `O=c1[nH]c(=O)n(C2CC(OCc3cccc(Cl)c3)C(CO)O2)cc1F` (centres undefined), 153 to 155 °C; that for `Cc1ccccc1SCc1c(CCN(C)C)[nH]c2ccccc12`, 134 to 137 °C. Next, `O=[N+]([O-])c1ccc(OC2CCCC2)cc1NC1CCCCC1`: 98 °C. `COC(=O)c1nc(NC(C)=O)sc1-c1ccccc1` had a melting point of 224 to 226 °C.

Molecule `CC(C)(C)OC(=O)N[C@@H]1CN(c2ccccc2)c2ccccc2NC1=O` registered a melting point of 160 to 165 °C. Next, `Oc1ccc(Br)cc1C12CC3CC(CC(C3)C1)C2`: 140 to 141 °C. Next, `N#Cc1c(F)cc(OCc2ccncc2)cc1OC(C(=O)O)c1ccccc1Cl` (racemic): 135 to 139 °C; `C[N+]([O-])=C(Cn1ccnc1)c1cccs1`: 162 to 164 °C; `CC(C)=CCc1cc2cc(-c3cc(O)cc(O)c3)oc2cc1O`: 183 to 184 °C.

Regarding `CCOC(=O)N1CCN(C2=Nc3ccc(Br)c4cccc2c34)CC1`, the melting point lay within 170 to 174 °C.

Take `COC(=O)C[C@@H](CC(=O)C=Cc1c(-c2ccc(F)cc2)c(-c2ccccc2)c(C(=O)Nc2cccc(S(N)(=O)=O)c2)n1C(C)C)O[Si](C)(C)C(C)(C)C`: the melting point is 90 to 91 °C. Next, `Cc1nc2c(N)nc3ccccc3c2o1`: 195 to 197 °C. Next, `CCCCCCOC(=O)CC[C@@H](NC(=O)[C@@H](NC(=O)OC(C)(C)C)C(C)C)C(N)=O`: 94 to 95 °C. The molecule `CC1=CC(c2cccc(C(F)(F)F)c2)C2=C(CCCC2=O)N1` (centres undefined) displayed a melting point of 184 to 185 °C. Next, `COc1cccc2c1C[C@@H](NC=O)CC2`: 140 to 141 °C; `CCOCc1cnc2c(NC(=O)c3c(Cl)cccc3Cl)cccc2c1N1CCN(C)C1=O`: 173 to 177 °C; `Clc1ccc(-c2nc(Cl)nc(Cl)n2)c(Cl)c1`: 118 °C. Next, `Cc1c(C)c2c(c(C)c1N)OC(C)(C)C2c1ccc(C(C)C)cc1` (centres undefined): 120 to 121 °C. The result for `COc1cc2c(=O)n(CCCO)c3c4ccccc4[nH]c(=O)c3c2cc1OC` reads 313 °C; that for `COc1cccc2cnc(C)nc12`, 131 to 132 °C.

With `COc1ccc2c(c1O)C(=O)CC(c1ccc(F)cc1)=N2`, the melting point lay within 60 to 62 °C.
